PMC11533140 (Frontiers in Pharmacology, 2024)
Like-named read-outs stand apart in the source and are kept apart here. Values belong to the compound of their own block, whether it stands above or below them.

Columns and labels:
DU145 cells = experiment: MTT antiproliferative assay, DU145; type: cell-based; settings: for IC50: Homo sapiens, DU-145
Protocol: (§1) The in vitro inhibition assays of all final compounds against PI3K were performed by Shanghai ChemPartner Co., Ltd. (China). The antiproliferative activities of the compounds against A2780, U87MG, MCF7, and DU145 cell lines were tested by the standard MTT method. CHO cells stably expressing the transcript of hERG were investigated by the automated whole-cell patch clamp technique, using the QPatch system (Sophion). The compound was tested with Salmonella typhimurium strains TA98 and TA100 with the plate incorporation method at seven doses. Apoptosis was evaluated using the One-Step TUNEL Apoptosis Assay Kit (FITC) (cat. no. MA0223; Meilunbio, Dalian, China), according to the manufacturer’s protocol. Male and female SD rats (SLRC Laboratory Animal Inc., Shanghai, China) were used, and the detailed pharmacokinetic procedures are described in Supplementary Material.

PI3Kα = PI3Kα (Homo sapiens, UniProt P42336); experiment: in vitro PI3Kα kinase inhibition assay; type: biochemical
Sequence of PI3Kα (P42336 whole entry): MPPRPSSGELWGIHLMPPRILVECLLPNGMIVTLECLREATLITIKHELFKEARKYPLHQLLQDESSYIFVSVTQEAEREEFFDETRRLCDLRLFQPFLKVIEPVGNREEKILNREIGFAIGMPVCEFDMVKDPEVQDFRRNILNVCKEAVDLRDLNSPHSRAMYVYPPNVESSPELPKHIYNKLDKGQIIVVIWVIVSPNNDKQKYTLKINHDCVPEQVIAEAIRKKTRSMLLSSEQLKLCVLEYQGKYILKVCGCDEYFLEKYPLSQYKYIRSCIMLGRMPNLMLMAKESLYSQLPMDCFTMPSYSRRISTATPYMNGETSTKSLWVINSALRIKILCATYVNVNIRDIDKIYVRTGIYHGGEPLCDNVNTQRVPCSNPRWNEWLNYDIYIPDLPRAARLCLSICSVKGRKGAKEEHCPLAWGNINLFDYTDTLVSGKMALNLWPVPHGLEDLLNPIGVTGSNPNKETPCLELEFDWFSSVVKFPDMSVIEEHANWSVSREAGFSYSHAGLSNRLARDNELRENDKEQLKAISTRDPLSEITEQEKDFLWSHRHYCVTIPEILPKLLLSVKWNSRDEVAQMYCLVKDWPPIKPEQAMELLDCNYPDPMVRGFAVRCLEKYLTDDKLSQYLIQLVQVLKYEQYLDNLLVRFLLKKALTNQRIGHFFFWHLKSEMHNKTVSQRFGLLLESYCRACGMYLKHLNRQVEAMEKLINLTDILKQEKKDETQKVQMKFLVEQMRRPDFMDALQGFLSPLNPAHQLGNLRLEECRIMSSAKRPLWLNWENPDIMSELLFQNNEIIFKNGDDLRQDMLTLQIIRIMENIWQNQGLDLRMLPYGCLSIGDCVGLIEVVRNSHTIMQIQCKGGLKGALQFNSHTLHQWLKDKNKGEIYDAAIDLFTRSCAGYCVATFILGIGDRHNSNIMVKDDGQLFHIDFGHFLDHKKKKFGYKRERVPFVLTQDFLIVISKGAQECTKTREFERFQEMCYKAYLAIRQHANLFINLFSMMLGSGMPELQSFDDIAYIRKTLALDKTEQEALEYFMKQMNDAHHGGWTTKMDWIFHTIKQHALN
Sequence of PI3Kα (P27986 whole entry partner): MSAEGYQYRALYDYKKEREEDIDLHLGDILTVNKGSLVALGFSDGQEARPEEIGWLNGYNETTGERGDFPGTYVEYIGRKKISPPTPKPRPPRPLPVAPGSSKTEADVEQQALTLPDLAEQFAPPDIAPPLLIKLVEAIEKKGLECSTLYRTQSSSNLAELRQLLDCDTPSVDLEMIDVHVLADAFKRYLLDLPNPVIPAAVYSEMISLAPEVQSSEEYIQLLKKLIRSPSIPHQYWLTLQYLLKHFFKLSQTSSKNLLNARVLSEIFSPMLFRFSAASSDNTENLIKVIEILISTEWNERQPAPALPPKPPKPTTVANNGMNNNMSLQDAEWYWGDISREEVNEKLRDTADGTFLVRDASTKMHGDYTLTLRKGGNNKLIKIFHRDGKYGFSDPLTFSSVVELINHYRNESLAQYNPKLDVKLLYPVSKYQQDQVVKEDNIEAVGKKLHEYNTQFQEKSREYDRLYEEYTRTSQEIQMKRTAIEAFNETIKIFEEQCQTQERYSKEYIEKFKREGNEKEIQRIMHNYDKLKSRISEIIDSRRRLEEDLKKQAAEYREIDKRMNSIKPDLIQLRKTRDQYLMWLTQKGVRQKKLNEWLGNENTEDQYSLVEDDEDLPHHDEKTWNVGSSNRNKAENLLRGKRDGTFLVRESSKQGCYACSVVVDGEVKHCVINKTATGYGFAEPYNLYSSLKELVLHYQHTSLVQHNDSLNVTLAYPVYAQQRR
Protocol: as §1

HL-7702 cells = experiment: inhibitory activity on normal cells, HL-7702; type: cell-based; settings: Homo sapiens, L02
Source text: (§2) Several clinical PI3K candidates were severely intolerable to patients due to fatal hepatotoxicity and, thus, failed in clinical trials. Thus, evaluating the selectivity of compounds toward normal cells might reduce the risk of clinical failure of new compounds.

PI3Kδ = PI3Kδ (Homo sapiens, UniProt O00329); experiment: in vitro PI3Kδ inhibition assay (isoform selectivity); type: biochemical; settings: Table 4
Sequence of PI3Kδ (O00329 whole entry, canonical isoform): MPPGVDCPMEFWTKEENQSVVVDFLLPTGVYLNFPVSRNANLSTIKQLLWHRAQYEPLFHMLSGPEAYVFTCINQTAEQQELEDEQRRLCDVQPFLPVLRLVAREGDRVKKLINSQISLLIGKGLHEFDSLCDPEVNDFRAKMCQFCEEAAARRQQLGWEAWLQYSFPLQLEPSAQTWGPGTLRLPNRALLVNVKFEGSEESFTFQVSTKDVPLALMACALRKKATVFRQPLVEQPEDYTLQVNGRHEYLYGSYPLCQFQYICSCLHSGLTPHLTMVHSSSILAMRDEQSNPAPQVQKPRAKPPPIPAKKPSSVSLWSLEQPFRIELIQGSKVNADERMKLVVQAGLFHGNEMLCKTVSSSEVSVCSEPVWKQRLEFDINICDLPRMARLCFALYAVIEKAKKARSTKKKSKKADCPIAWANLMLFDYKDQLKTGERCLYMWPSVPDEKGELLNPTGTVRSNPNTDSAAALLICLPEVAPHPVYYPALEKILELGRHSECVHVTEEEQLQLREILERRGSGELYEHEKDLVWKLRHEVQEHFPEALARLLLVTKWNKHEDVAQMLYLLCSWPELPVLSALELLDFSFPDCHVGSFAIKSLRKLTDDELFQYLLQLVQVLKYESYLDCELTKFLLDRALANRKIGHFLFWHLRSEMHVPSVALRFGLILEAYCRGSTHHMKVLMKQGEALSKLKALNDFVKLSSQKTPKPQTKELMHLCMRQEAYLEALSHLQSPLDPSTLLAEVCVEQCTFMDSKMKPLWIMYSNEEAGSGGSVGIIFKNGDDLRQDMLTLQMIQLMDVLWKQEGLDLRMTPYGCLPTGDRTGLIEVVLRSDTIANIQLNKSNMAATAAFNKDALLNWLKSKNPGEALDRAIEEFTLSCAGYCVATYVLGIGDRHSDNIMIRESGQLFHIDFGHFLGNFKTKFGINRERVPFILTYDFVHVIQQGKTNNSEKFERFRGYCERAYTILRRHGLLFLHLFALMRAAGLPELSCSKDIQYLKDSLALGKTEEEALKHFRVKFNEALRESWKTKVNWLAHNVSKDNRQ
Sequence of PI3Kδ (P27986 whole entry partner, canonical isoform): as the sequence (P27986 whole entry partner) above
Protocol: as §1

mTOR = mTOR (Homo sapiens, UniProt P42345); experiment: in vitro mTOR inhibition assay (selectivity); type: biochemical; settings: Table 4
Protocol: as §1

MRC-5 cells = experiment: inhibitory activity on normal cells, MRC-5; type: cell-based; settings: Homo sapiens, MRC5
Source text: as §2

PI3Kγ = PI3Kγ (Homo sapiens, UniProt P48736); experiment: in vitro PI3Kγ inhibition assay (isoform selectivity); type: biochemical; settings: Table 4
Sequence of PI3Kγ (P48736 whole entry, canonical isoform): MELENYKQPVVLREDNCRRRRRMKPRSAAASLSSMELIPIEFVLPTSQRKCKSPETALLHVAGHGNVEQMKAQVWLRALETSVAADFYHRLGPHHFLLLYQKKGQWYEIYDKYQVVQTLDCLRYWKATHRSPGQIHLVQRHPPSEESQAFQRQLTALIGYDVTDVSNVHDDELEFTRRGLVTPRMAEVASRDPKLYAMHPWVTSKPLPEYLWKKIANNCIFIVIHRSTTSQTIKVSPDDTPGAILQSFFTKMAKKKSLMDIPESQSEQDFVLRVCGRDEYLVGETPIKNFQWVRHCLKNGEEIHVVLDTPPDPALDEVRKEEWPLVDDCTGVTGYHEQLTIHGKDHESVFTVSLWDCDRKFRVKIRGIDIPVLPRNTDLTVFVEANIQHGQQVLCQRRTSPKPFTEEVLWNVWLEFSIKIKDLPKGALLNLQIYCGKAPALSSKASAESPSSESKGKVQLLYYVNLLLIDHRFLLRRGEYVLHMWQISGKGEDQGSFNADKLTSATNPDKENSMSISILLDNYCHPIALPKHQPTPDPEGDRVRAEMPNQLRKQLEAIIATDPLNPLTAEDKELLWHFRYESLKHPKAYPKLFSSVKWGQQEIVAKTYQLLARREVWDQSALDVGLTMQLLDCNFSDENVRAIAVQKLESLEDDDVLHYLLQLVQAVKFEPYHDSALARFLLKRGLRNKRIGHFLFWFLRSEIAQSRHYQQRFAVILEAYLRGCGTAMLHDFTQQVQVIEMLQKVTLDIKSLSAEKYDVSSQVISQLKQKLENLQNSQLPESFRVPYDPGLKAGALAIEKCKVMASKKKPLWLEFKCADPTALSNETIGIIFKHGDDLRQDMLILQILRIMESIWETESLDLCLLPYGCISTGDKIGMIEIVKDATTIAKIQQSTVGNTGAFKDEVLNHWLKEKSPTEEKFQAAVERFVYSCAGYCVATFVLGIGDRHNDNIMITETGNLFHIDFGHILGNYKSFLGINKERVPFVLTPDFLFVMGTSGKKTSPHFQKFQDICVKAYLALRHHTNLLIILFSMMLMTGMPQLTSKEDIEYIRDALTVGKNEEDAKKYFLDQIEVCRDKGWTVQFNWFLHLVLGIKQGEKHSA
Protocol: as §1

MCF7 cells = experiment: MTT antiproliferative assay, MCF7; type: cell-based; settings: Homo sapiens
Protocol: as §1

U87MG cells = experiment: MTT antiproliferative assay, U87MG; type: cell-based; settings: for IC50: Homo sapiens, U-87 MG
Protocol: as §1

PI3Kβ = PI3Kβ (Homo sapiens, UniProt P42338); experiment: in vitro PI3Kβ inhibition assay (isoform selectivity); type: biochemical; settings: Table 4
Sequence of PI3Kβ (P42338 whole entry, canonical isoform): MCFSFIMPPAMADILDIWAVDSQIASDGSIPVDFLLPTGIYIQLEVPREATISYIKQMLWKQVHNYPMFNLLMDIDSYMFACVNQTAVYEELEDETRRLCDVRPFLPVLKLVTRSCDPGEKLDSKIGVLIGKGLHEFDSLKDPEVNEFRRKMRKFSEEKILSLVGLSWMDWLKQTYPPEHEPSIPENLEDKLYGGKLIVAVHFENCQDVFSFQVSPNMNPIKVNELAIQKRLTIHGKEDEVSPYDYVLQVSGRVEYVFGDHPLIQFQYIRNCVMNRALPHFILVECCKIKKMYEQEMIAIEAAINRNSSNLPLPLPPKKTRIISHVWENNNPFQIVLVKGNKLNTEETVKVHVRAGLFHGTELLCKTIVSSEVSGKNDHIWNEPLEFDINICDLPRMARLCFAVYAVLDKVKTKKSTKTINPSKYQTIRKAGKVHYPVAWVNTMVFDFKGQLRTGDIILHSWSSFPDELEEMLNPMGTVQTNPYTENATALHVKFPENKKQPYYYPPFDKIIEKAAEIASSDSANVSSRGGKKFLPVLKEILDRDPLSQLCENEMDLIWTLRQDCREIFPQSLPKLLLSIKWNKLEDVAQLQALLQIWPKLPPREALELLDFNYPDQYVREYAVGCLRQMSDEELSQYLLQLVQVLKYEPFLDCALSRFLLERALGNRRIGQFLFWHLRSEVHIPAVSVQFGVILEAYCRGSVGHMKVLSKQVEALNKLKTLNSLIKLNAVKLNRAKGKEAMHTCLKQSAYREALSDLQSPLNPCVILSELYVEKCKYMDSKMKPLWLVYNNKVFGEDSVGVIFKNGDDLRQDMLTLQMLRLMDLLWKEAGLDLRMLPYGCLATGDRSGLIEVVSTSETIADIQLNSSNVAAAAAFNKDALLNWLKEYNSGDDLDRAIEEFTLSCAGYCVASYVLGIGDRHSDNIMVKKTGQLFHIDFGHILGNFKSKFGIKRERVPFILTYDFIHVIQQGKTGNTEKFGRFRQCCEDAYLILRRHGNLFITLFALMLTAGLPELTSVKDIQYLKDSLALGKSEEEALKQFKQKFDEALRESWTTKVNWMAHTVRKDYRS
Sequence of PI3Kβ (P27986 whole entry partner, canonical isoform): as the sequence (P27986 whole entry partner) above
Protocol: as §1

A2780 cells [1] = experiment: MTT antiproliferative assay, A2780; type: cell-based; settings: Homo sapiens
Protocol: as §1

[2] = pharmacokinetics in SD rats; type: in vivo; design: area under the curve: unit not given here; settings: for AUC(0-t) / Cmax / half-life / Tmax / bioavailability: rat, plasma; for bioavailability: read-out: F (oral bioavailability)
Protocol: as §1
According to the good in vitro properties of compound 17p, we performed pharmacokinetic analyses in male and female SD rats at doses of 10 (po) and 2.5 mg/kg (iv), respectively (Table 9). The pharmacokinetic properties in male and female SD rats were […]. […] Thus, compound 17p had favorable pharmacokinetic properties.

[3] = liver microsome stability, rat; type: in vitro ADME; settings: liver microsomes
Protocol: (§3) The metabolic stability of 17p was evaluated in liver microsome assays, which measure clearance and half-life in rats and humans.

[4] = liver microsome stability, human; type: in vitro ADME; settings: liver microsomes
Protocol: as §3

hERG = biological target: T1, hERG (Homo sapiens, UniProt Q12809); experiment: hERG automated whole-cell patch clamp (QPatch), CHO cells; type: cell-based; settings: human, CHO cells stably expressing hERG; CHO cells expressing hERG, patch clamp; read-out: IC50 on hERG potassium currents
T1 construct: expressed in transfected cells
Protocol: as §1
(§4) To evaluate cardiotoxicity, it is necessary to test inhibitory activity on hERG potassium currents.

hERG potassium currents = biological target: T2, hERG potassium currents (Homo sapiens, UniProt Q12809); experiment: as above; type: cell-based; settings: in words
T2 construct: expressed in transfected cells
Protocol: as §1, §4

[5] = test system: Salmonella typhimurium TA100; experiment: Ames test, plate incorporation, TA100; type: cell-based
Protocol: as §1
(§5) S. typhimurium TA98 and TA100 were selected to conduct the Ames experiment to investigate the genotoxicity risk of compound 17p.

A2780 cells [6] = experiment: TUNEL apoptosis assay in A2780; type: cell-based; settings: 24 h treatment
Protocol: as §1
The ED50 value of 17p cytotoxicity was determined using a multiple logistic regression model.

[7] = test system: Salmonella typhimurium TA98; experiment: Ames test, plate incorporation, TA98; type: cell-based
Protocol: as §1, §5

[8] = Figure 5 activity bins, read-out: IC50 range in SAR figure (PI3Kα)
[9] = Table 4, read-out: IC50 PI3Kα (isoform selectivity study)
[10] = mean of three independent experiments, read-out: IC50 against PI3Kα
[11] = Figure 5 activity bins, read-out: weak activity IC50 in SAR figure (PI3Kα)
[12] = read-out: T1/2 liver microsomes

IC50 (DU145 cells): 1520 ± 110 nM
IC50 (PI3Kα; [8]): 30 to 300 nM
IC50 (PI3Kα; [9]): 86.1 ± 7.8 nM
IC50 (PI3Kα; [10]): 88.5 ± 6.1 nM
IC50 (PI3Kδ): 55.6 ± 3.8 nM
IC50 (mTOR): > 10000 nM
IC50 (PI3Kγ): 318 ± 19 nM
IC50 (MCF7 cells): 370 ± 30 nM
IC50 (U87MG cells): 1750 ± 220 nM
IC50 (PI3Kβ): 152 ± 18.7 nM
IC50 (A2780 cells [1]): 390 ± 30 nM
SMILES: N#Cc1c(-c2cccc(O)c2)nc(N2CCOCC2)nc1N1CCOCC1 [Compound 17e]
IC50 (HL-7702 cells): 6170 ± 750 nM
IC50 (MRC-5 cells): 2190 ± 110 nM

IC50 (PI3Kα; [8]): 400 to 800 nM
IC50 (PI3Kα; [10]): 792 ± 87.7 nM
SMILES: N#Cc1c(-c2cccnc2)nc(N2CCOCC2)nc1N1CCOCC1 [Compound 17i]

IC50 (PI3Kα; [11]): > 1000 nM
IC50 (PI3Kα; [10]): 3040 nM
SMILES: N#Cc1c(-c2ccncc2)nc(N2CCOCC2)nc1N1CCOCC1 [Compound 17j]

IC50 (PI3Kα; [8]): 30 to 300 nM
IC50 (PI3Kα; [10]): 159 ± 14.4 nM
SMILES: N#Cc1c(-c2ccc(N)nc2)nc(N2CCOCC2)nc1N1CCOCC1 [Compound 17k]

IC50 (DU145 cells): 5050 ± 470 nM
IC50 (PI3Kα; [8]): 30 to 300 nM
IC50 (PI3Kα; [9]): 34.7 ± 4.6 nM
IC50 (PI3Kα; [10]): 34.7 ± 2.1 nM
IC50 (PI3Kδ): 204 ± 22.2 nM
IC50 (mTOR): 204 ± 30.1 nM
IC50 (PI3Kγ): 176 ± 15.9 nM
IC50 (MCF7 cells): 1160 ± 120 nM
IC50 (U87MG cells): 4190 ± 530 nM
IC50 (PI3Kβ): 176 ± 26.3 nM
IC50 (A2780 cells [1]): 1130 ± 100 nM
SMILES: CNc1ncc(-c2nc(N3CCOCC3)nc(N3CCOCC3)c2C#N)cn1 [Compound 17o]

Further lines, the compound ahead of its results:

SMILES: N#Cc1c(-c2ccc(O)cc2)nc(N2CCOCC2)nc1N1CCOCC1 [Compound 17f]
IC50 (PI3Kα; [8]): 400 to 800 nM
IC50 (PI3Kα; [10]): 473 ± 28.3 nM

SMILES: COc1cccc(-c2nc(N3CCOCC3)nc(N3CCOCC3)c2C#N)c1 [Compound 17g]
IC50 (PI3Kα; [11]): > 1000 nM
IC50 (PI3Kα; [10]): 3270 nM

SMILES: N#Cc1c(-c2ccc(N)cc2)nc(N2CCOCC2)nc1N1CCOCC1 [Compound 17h]
IC50 (PI3Kα; [8]): 400 to 800 nM
IC50 (PI3Kα; [10]): 477 ± 52.4 nM

SMILES: Cc1cc(N)ncc1-c1nc(N2CCOCC2)nc(N2CCOCC2)c1C#N [Compound 17l]
IC50 (PI3Kα; [8]): 400 to 800 nM
IC50 (PI3Kα; [10]): 443 ± 39.7 nM

SMILES: N#Cc1c(-c2cnc(N)cc2C(F)(F)F)nc(N2CCOCC2)nc1N1CCOCC1 [Compound 17m]
IC50 DU145 (DU145 cells): no inhibitory effects
IC50 (DU145 cells): 12400 ± 1470 nM
IC50 (PI3Kα; [8]): 30 to 300 nM
IC50 (PI3Kα; [10]): 104 ± 12.5 nM
IC50 (MCF7 cells): 1070 ± 90 nM
IC50 U87MG (U87MG cells): no inhibitory effects
IC50 (U87MG cells): 66100 ± 9940 nM
IC50 (A2780 cells [1]): 2720 ± 190 nM

SMILES: N#Cc1c(-c2cncnc2)nc(N2CCOCC2)nc1N1CCOCC1 [Compound 17n]
IC50 (PI3Kα; [8]): 400 to 800 nM
IC50 (PI3Kα; [10]): 604 ± 103 nM

SMILES: N#Cc1c(-c2cnc(N)nc2C(F)(F)F)nc(N2CCOCC2)nc1N1CCOCC1 [Compound 17p]
IC50 (DU145 cells): 8770 ± 1160 nM
Cl_F_pred ([2]; female SD rats, 2.5 mg/kg iv): 1.5 mL/min/kg
Cl_F_pred (plasma clearance) ([2]; female SD rats, 10 mg/kg po): 3.3 mL/min/kg
area under the curve ([2]; female SD rats, 10 mg/kg po): 50,618.9
Cl_F_pred ([2]; male SD rats, 2.5 mg/kg iv): 16.3 mL/min/kg
Cl_F_pred ([2]; male SD rats, 10 mg/kg po): 109 mL/min/kg
AUC(0-t) ([2]; female SD rats, 2.5 mg/kg iv): 27400 ng·h/mL
Cmax ([2]; female SD rats, 2.5 mg/kg iv): 4280 ng/mL
half-life ([2]; female SD rats, 2.5 mg/kg iv): 2.79 h
AUC(0-t) ([2]; female SD rats, 10 mg/kg po): 50600 ng·h/mL
Cmax ([2]; female SD rats, 10 mg/kg po): 4860 ng/mL
Tmax ([2]; female SD rats, 10 mg/kg po): 3.33 h
half-life ([2]; female SD rats, 10 mg/kg po): 2.03 h
bioavailability ([2]; female SD rats, 10 mg/kg po): 46.2%
AUC(0-t) ([2]; male SD rats, 2.5 mg/kg iv): 2690 ng·h/mL
Cmax ([2]; male SD rats, 2.5 mg/kg iv): 3120 ng/mL
half-life ([2]; male SD rats, 2.5 mg/kg iv): 0.68 h
AUC(0-t) ([2]; male SD rats, 10 mg/kg po): 1860 ng·h/mL
Cmax ([2]; male SD rats, 10 mg/kg po): 538 ng/mL
Tmax ([2]; male SD rats, 10 mg/kg po): 0.67 h
half-life ([2]; male SD rats, 10 mg/kg po): 3.19 h
bioavailability ([2]; male SD rats, 10 mg/kg po): 17.3%
IC50 (PI3Kα; [8]): 30 to 300 nM
IC50 (PI3Kα; [9]): 30.3 ± 3.5 nM
IC50 (PI3Kα; [10]): 32.4 ± 4.1 nM
microsomal CLint ([3]; read-out: CL liver microsomes): 36 µL/min/mg
half-life [3, 12]: 0.642 h
IC50 (HL-7702 cells): 4620 ± 520 nM
IC50 (PI3Kδ): 15.4 ± 1.9 nM
IC50 (mTOR): 1420 ± 184 nM
microsomal CLint ([4]; read-out: CL liver microsomes): 10.8 µL/min/mg
half-life [4, 12]: 2.13 h
IC50 (MRC-5 cells): 8470 ± 770 nM
IC50 (hERG): 390 ± 30 nM
inhibition of hERG potassium currents (hERG potassium currents): no obvious inhibition
IC50 (PI3Kγ): 286 ± 39.6 nM
Number of bacterial colony revertant mutations (mean ± SD) TA100 ([5]; 3 μg/dish): 88 ± 7
Number of bacterial colony revertant mutations (mean ± SD) TA100 ([5]; 10 μg/dish): 92 ± 3
Number of bacterial colony revertant mutations (mean ± SD) TA100 ([5]; 30 μg/dish): 86 ± 4
Number of bacterial colony revertant mutations (mean ± SD) TA100 ([5]; 100 μg/dish): 91 ± 6
Number of bacterial colony revertant mutations (mean ± SD) TA100 ([5]; 300 μg/dish): 90 ± 3
Number of bacterial colony revertant mutations (mean ± SD) TA100 ([5]; 1,000 μg/dish): 91 ± 1
Number of bacterial colony revertant mutations (mean ± SD) TA100 ([5]; 5,000 μg/dish): 87 ± 1
mutagenic effect on TA100 ([5]; in words): no mutagenic effect
cytotoxicity ED50 (TUNEL, logistic regression) (A2780 cells [6]): 5.345 µM
IC50 (MCF7 cells): 1590 ± 80 nM
IC50 (U87MG cells): 4720 ± 370 nM
Number of bacterial colony revertant mutations (mean ± SD) TA98 ([7]; 3 μg/dish): 38 ± 7
Number of bacterial colony revertant mutations (mean ± SD) TA98 ([7]; 10 μg/dish): 41 ± 4
Number of bacterial colony revertant mutations (mean ± SD) TA98 ([7]; 30 μg/dish): 37 ± 11
Number of bacterial colony revertant mutations (mean ± SD) TA98 ([7]; 100 μg/dish): 43 ± 4
Number of bacterial colony revertant mutations (mean ± SD) TA98 ([7]; 300 μg/dish): 29 ± 4
Number of bacterial colony revertant mutations (mean ± SD) TA98 ([7]; 1,000 μg/dish): 44 ± 5
Number of bacterial colony revertant mutations (mean ± SD) TA98 ([7]; 5,000 μg/dish): 40 ± 4
mutagenic effect on TA98 ([7]; in words): no mutagenic effect
IC50 (PI3Kβ): 125 ± 10.1 nM
IC50 (A2780 cells [1]): 850 ± 110 nM
